PubChem BioAssay (NCI)
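Five concentrations, 48 hours, 96-well plates. Abbreviation: GI50, concentration required for 50% inhibition of growth. At the TGI there is no net growth.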

Columns and labels:
Assay in all cases: inhibition of tumour cell growth, NCI panel, 48 h
OVCAR-4 ovarian = tested on: OVCAR-4 ovarian
SF-268 CNS = tested on: SF-268 CNS
HOP-62 NSCLC = tested on: HOP-62 NSCLC
OVCAR-8 ovarian = tested on: OVCAR-8 ovarian
HS 578T breast = tested on: HS 578T breast
786-0 renal = tested on: 786-0 renal
DU-145 prostate = tested on: DU-145 prostate
NCI-H226 lung = tested on: NCI-H226 lung
DLD-1 colon = tested on: DLD-1 colon

| Compound | GI50 (OVCAR-4 ovarian) [µM] | TGI (OVCAR-4 ovarian) [µM] | GI50 (SF-268 CNS) [µM] | TGI (SF-268 CNS) [µM] | GI50 (HOP-62 NSCLC) [µM] | TGI (HOP-62 NSCLC) [µM] | GI50 (OVCAR-8 ovarian) [µM] | TGI (OVCAR-8 ovarian) [µM] | GI50 (HS 578T breast) [µM] | TGI (HS 578T breast) [µM] | GI50 (786-0 renal) [µM] | TGI (786-0 renal) [µM] | GI50 (DU-145 prostate) [µM] | TGI (DU-145 prostate) [µM] | GI50 (NCI-H226 lung) [µM] | TGI (NCI-H226 lung) [µM] | TGI (DLD-1 colon) [µM] |
| --- | --- | --- | --- | --- | --- | --- | --- | --- | --- | --- | --- | --- | --- | --- | --- | --- | --- |
| COC(=O)c1cc2ccccc2c2c3c(ccc12)OCO3 | 22.3 | 133 | 50.6 | 371 | 26.2 | 91.7 | 41.1 | > 1000 | 36.4 | 247 | 56.1 | 477 | 109 | > 1000 | 26.4 | 146 |  |
| Cc1[nH]c(=O)nc(Nc2ccc(Cl)cc2)c1C(=O)N1CCN(CCO)CC1 | > 100 | > 100 | 65 | > 100 | 27.2 | 77.4 | 72 | > 100 | 34.2 | > 100 | 50.7 | > 100 | > 100 | > 100 | > 100 | > 100 |  |
| Cc1ccc(-c2csc(NC(=O)N3CCN(c4cc5c(cc4F)c(=O)c(C(=O)O)cn5C4CC4)CC3)n2)cc1 | 2.64 | > 100 | 0.371 | > 100 | 0.484 | > 100 | 0.421 | 7.74 | 0.666 | > 100 | 0.471 | 37.5 | 0.428 | > 100 | 1.44 | 8.85 |  |
| C[C@]12CCC(=O)CC1CCCC2=O (some centres undefined) |  | > 100 |  | > 100 |  | > 100 |  | > 100 |  |  |  | > 100 |  |  |  |  | > 100 |
| C#CCNCCN1C(=O)c2ccc3c4c(ccc(c24)C1=O)C(=O)N(CCNCC#C)C3=O | 1.96 | 7.47 | 3.78 | 24.2 | 4.1 | 14.9 | 2.25 | 20.8 | 8.35 | 29.2 | 6.1 | 26.5 | 5.35 | 11.8 | 2.96 | 12.2 |  |
| COc1ccc(C2=C(c3ccc(OC)c(OC)c3)C(=O)N3CCCC3C2)cc1 (centres undefined) | 20.6 | > 100 | 9.44 | > 100 | 14.7 | > 100 | 21.7 | > 100 | 6.71 | > 78 | 27.6 | > 100 | 30.8 | > 86.8 | 43.9 | > 100 |  |
| CCN(CC)c1oc(N(CC)CC)c(C(=O)Nc2ccccn2)c(=O)c1C(C)=O |  |  |  | > 100 |  | > 100 |  | > 100 |  |  |  | > 100 |  |  |  | > 100 | > 100 |
| CCSc1nc(SCC)c2c(-c3ccc(OC)c(OC)c3)c(C#N)c(SCC)nc2n1 | 31.8 | > 100 | 14.2 | 77.4 | 22.6 | 63.2 | 43.8 | > 100 | 3 | 19.7 | 18.7 | 59.1 | 17.7 | 47.8 | 20.5 | 54.6 |  |
| O1[As]2O[As]3O[As]1O[As](O2)O3 | 1.06 | 11.9 | 0.456 | 1.86 | 1 | 2.55 | 1.89 | 13.6 | 0.981 | > 42.5 | 0.528 | 1.82 | 2.08 | 7.21 | 1.01 | 4.64 |  |
